Test results reported in US20230159509A1 (Amathus Therapeutics, Inc., priority 2020, published 2023).

Legend:
TRAP1 enzyme = biological target: T1, TRAP1 enzyme (Homo sapiens, UniProt Q12931); experiment: ADP Glo assay of TRAP1 ATPase activity; assay type: biochemical
T1 construct: 150 nM Trap1 enzyme was incubated with various concentrations of the test compound
T1 sequence (Q12931 60-704): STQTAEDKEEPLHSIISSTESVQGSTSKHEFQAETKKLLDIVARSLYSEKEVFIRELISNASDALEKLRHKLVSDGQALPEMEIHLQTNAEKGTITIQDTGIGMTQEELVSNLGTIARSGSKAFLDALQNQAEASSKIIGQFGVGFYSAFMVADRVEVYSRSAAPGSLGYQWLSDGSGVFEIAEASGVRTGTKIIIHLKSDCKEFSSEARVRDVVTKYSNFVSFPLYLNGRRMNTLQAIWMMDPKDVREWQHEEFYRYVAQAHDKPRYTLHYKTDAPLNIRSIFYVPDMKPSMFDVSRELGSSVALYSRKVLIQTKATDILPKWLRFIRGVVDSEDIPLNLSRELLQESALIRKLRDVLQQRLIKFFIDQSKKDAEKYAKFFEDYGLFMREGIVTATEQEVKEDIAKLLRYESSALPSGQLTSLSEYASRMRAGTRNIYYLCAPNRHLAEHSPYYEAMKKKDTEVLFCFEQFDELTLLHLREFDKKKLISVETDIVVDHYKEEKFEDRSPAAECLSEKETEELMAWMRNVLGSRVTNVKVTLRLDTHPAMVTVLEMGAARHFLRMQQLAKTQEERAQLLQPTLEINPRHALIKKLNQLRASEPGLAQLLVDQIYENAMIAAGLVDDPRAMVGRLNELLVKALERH
In short: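 ADP-Glo luminescence quantifying ADP from 150 nM TRAP1 preincubated 30 min at 37° C with compound (0.79–100 μM), then 20 μM ATP for 60 min at 37° C. Buffer: 25 mM Pipes pH 7.5, 40 mM KCl, 0.05 mM MgCl2, EGTA, BSA, detergents. ADP from ATP/ADP standard curve; Emax and EC50 from sigmoidal fit.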

[1] = test system: tamoxifen-induced polycystic kidney disease model (Ksp-TamCre×PkdlLox); experiment: Tamoxifen-induced polycystic kidney disease mouse model; assay type: in vivo; details: compound 1206 10 mg/kg po QD 14d
Description: Compound 1206 (10 mg/kg po, QD dosing for 14d, n=13/group) was assessed in a tamoxifen-induced polycystic kidney disease model (Ksp-TamCre×PkdlLox; Human Molecular Genetics, 2007, Vol. 16, No. 24, 3188-3196). A negative control group induced with tamoxifen (Vehicle) and a negative control group not induced with tamoxifen (No Tam) were included. A positive control group was dosed with everolimus. Mice were dosed orally on both PND 10, 11 with 25 mg/kg tamoxifen. Oral dosage of vehicle, compound 1206, and everolimus started from PND 14 onwards to PND 27. The readouts of this study were body weight, kidney weight, BUN levels and histopathology assessment including cyst index.
The fixated kidney half was processed for paraffin embedding and further pathological assessment after hematoxylin-eosin staining. One piece of each H-E stained kidney half was observed by a board certified pathologist, who read a cross section of the kidney. For each kidney one section was evaluated. From this section an overview photo was taken (2X) and used to calculate the cystic index. The cystic areas were identified by a color thresholding method using an image analysis system (Image software, public domain software, NIH, Bethesda, Md.). The threshold area was calculated within a defined ROI (region of interest) representing the total area analyzed. This area represents at least 70-80% of the entire kidney section. The cystic index (CI) is defined as the percentage of the area of cysts lumen (in pixels) over the total kidney area in the selected ROI (in pixels).

mIMCD3 Pkd1 KO cells = experiment: Mouse cell derived cyst assay; assay type: cell-based; details: Pkd 1 KO mouse cell derived cyst forming assay; FIG. 16
Description: Mouse cell derived cyst assays were performed as described in Booij, Tijmen H et al., SLAS discovery: advancing life sciences R & D vol. 22.8 (2017): 974-984, or as described below.
Murine inner medullary collecting duct cell line (mIMCD3 Pkd1^−/− cells) • mIMCD3 Pkd1 KO cells were seeded in 384 wells plates in extracellular matrix. • 4 days after seeding, cultures were co-exposed to treatments and stimuli (2.5 μM forskolin); • After 72 h, cultures were fixed, stained for nuclei and actin cytoskeleton and imaged with 4× magnification; and • Image analysis of the 3D stack was done using Ominer™ image analysis software.

[2] = compared with tamoxifen-induced vehicle control group

Which EC50 (TRAP1 enzyme; concentration for half maximal activation, read-out: ADP GLO DRC: GeoMean EC50) does the source give for `COc1ncc(NC(=O)c2ccc3c(c2)n(C)c(=O)n3C)cc1S(=O)(=O)Nc1ccc(Cl)cc1` [compound 1206, N-(5-(N-(4-chlorophenyl)sulfamoyl)-6-methoxypyridin-3-yl)-1,3-dimethyl-2-oxo-2,3-dihydro-1H-benzo[d]imidazole-5-carboxamide] here?
The EC50 was less than 10 µM.

And the Emax (TRAP1 enzyme; maximal percent activation, read-out: ADP GLO DRC: Mean Emax)?
The Emax was 119 to 159%.

What about the “2 KW/BW ratio (kidney weight/body weight)” value ([1]; compared to tamoxifen-induced vehicle control group) of the same compound?
Its value is “significantly lower”.

What about the cystic index [1, 2] of the same compound?
The cystic index was “significantly lower”.

What about the “urea levels (BUN)” value [1, 2] of the same compound?
The value was “significantly lower”.

And the cyst formation (mIMCD3 Pkd1 KO cells)?
Its cyst formation is “preventing cyst formation”.
